Consider one substance from US20240382487A1, “NOVEL COPI/ARF1-LIPOLYSIS PATHWAY INHIBITOR AND COMPOUND FOR ERADICATING CANCER STEM CELLS AND INDUCING DAMP-MEDIATED ANTI-TUMOR IMMUNE RESPONSE” (FUDAN UNIVERSITY, priority 2020, published 2024).

The subject of one experiment is 4T1 breast carcinoma. Briefly: Drug-treated 4T1 cells in athymic nude mice. The format is in vivo. The arrangement: unit not given here. The following applies: cells treated with 10 μM Du 102. How it is done: The immunogenicity of the reagents can be tested in mouse vaccination models (Obeid et al., 2007; Sagiv barfi et al., 2018). One flank of the mouse was injected with drug treated tumor cells, followed one week later by a second injection of syngeneic tumor cells. We tested the vaccine efficacy in CT-26 colon cancer, B16-F10 melanoma, and 4T1 breast cancer treated with DMSO or du102.
Cells will be treated with 10 μM Du 102 or DMSO treated CT26, 4T1 and B16-F10 tumor cells (5×10^5\1×10^5 and 5×10^5, respectively) were subcutaneously inoculated into 6-week-old female mice. After 7 days, equal amounts of corresponding tumor cells were seeded to the right side. Tumor cell lines were mixed with Matrigel (GIBCO, cat s̆ 354234) or resuspended in PBS and injected subcutaneously or intradermally.

Experiment [1] relates to liver tumors in MYC-ON mice. The experiment is described as follows: MYC-ON liver tumor model. It counts as in vivo. The source says: We used the Tet system to generate transgenic mice conditionally expressing the myc pro-oncogene in hepatocytes, […] myc/lap TTA (lt2-myc) (shachaf et al., 2004). We crossed tre-myc mice with a transgenic line, lap TTA. in which the liver activator protein (LAP) promoter drives the expression of tetracycline trans-activator protein (TTA) in hepatocytes. We confirmed this by discontinuing the feeding of doxycycline (myc-ON) activated myc transgene expression in 3-week-old mice. Subsequently. all transgenic mice overexpressing myc succumbed to liver tumors with a mean latency to tumor onset of 12 weeks, as previously reported (shachaf et al., 2004). In this lap TTA/tet-off myc conditional transgenic mouse model, myc overexpression in adult mice reproducibly induces liver cancer, similar to hepatocellular carcinoma and/or hepatoblastoma. The transgenic tumor invades the entire liver locally and is frequently associated with malignant peritoneal effusions that spread to the thoracic cavity by metastasis and invade the lung parenchyma.
For the mouse liver tumor model, mating cages and weaning cages were administrated by a grain based rodent diet (Bio-Serv. Cat #14-727-450) containing 200 mg/kg doxycycline, and the mice were induced tumors at 6 weeks of age, by changing to a normal diet. Mice were divided into three groups, control, Du 101 treated and du102 treated. The control group was given 100 by gavage using a feeding tube 100 μl/10 g body weight (BW) 20% DMSO+80% corn oil. Du 101 treated groups were treated with 25 mg/ml Du 101. The stock solution was diluted 1:4 with corn oil to make the working solution. Dul02 treatment groups were treated with 25 mg/ml du102 stock solution diluted 1:4 with corn oil to make working solutions. The mixed working solution was administered to mice by gavage using a feeding tube. Starting from the second week of myc-0n, 5 injections per week ([…]) were given for 4 weeks, mice were monitored every 2 days, and 10 weeks later mice were euthanized and analyzed for tumor growth.
For the myc-on liver tumor model, antibodies were i.p. Mg/kg) was injected once a week for 5 consecutive weeks, the first Doxycycline was discontinued weekly after injection. Antibodies used to treat mice were as follows: anti-CD4 (clone GK1.5, BioXcell, Cat #BE0003-1), anti-CD8 a (clone 2.43, BioXcell, Cat #BE0061) Or […] rat IgG (bioxcell, cat #be0094) isotype control antibody. From the second week of myc-on initiation lasted for 4 weeks, Du 102 and DMSO were administered by gavage needle as described above, mice were monitored every 2 days, and 10 weeks later mice were euthanized and analyzed for tumor growth.
For the myc-on liver tumor model, antibodies were i.p. Injection once a week for 5 weeks, and doxycycline was discontinued weekly after the first injection. Antibodies used to treat mice were as follows: 100 ug/mouse Armenian hamster anti mouse PD1 (J43, bioxcell, cat #be0033-2) and 100 ug/mouse Armenian hamster isotype IgG (bioxcell. cat #bp0091) was used as controls. For 4 weeks from the second week of myc-on, Du 102 and DMSO were administered by gavage needle as described above, mice were monitored every 2 days. and 10 weeks later mice were euthanized and analyzed for tumor growth. Coadministration of anti-PD-1 antibodies may allow the use of lower, less toxic doses of du102, thus avoiding known side effects.

Experiment [2] has as its system colorectal cancer cell line LoVo. Briefly: In vitro cell line screening, LoVo. The format is cell-based. The source says:
(§1) In different tumor cytotoxicity experiments in vitro (FIG. 2-FIG. 7), including colorectal cancer cell lines HT29 and LoVo cells, liver cancer cell Huh7, lung cancer cells H460 and A549, the arf1 inhibitor could all inhibit tumor cell growth (FIG. 2-FIG. 6), and there was a dose-dependent manner (FIG. 7).

The subject of a further experiment is IL-1β. Briefly: IL-1β induction, B16-F10 melanoma model. The format is cell-based. To be noted: B16-F10 melanoma model in C57B/6 mice. The source says:
Example 7. Dulo2 Treatment Induces IL-1 in B16-F10 Melanoma of C57B/6 Mice. (Table 12)

Experiment [3] relates to colorectal cancer cell line HT29. Briefly: In vitro cell line screening, HT29. It counts as cell-based.
From the text: as §1

In experiment [4] the test system is MHC expression, CD4 and CD8 T cell infiltration. The experiment is described as follows: MHC expression and T-cell infiltration in MYC-ON mice. It counts as in vivo. The source says: Du 102 treatment increases MHC expression. CD4 and CD8 T cell infiltration as quantified by Q-PCR in myc-on mice (Table 16).
MHC-1 or MHC-II positive infiltrating CD4+ and CD8+ T-cells measured by immunohistochemical staining of representative section.

A further experiment concerns INFγ. Briefly: IFN-γ assay, CD11c+ DC and CD8+ T cells co-cultured with treated CT26 cells. To be noted: CT-26 colon cancer model, BALB/c mice; co-culture 2 days. It counts as cell-based. As to the method: For IL-1 β Assay: seven days after CT26 cell lysate injection. CD11c+DCs were isolated from injected BALB/c mice and co cultured with CT26 cells treated with DMSO or du102. After 2 days, […] was measured in harvested cells (Table 11). For the IFN-y assay: CD11c^+ DC and CD8^+ T cells were isolated from injected BALB/c mice 7 days after CT26 cell lysate injection and co cultured with CT26 cells treated with DMSO or du102. After 2 days. IFN-y was measured in harvested cells (table 11).

Where two headings read alike, the source gives them in different places.

For “1H-indolo-5-carbaldehyde 5,6,7,8,9,10-hexahydrocycloocta[4,5]thieno[2,3-d]pyrimidin-4-ylhydrazone [Du 102]”, the “4T1 breast carcinoma tumor in Athymic mice” value was 0 with 4T1 breast carcinoma (Day 0); 21.7 in the experiment on 4T1 breast carcinoma (Day 5); 41.3 in the experiment with 4T1 breast carcinoma (Day 10); 163.3 in the experiment on 4T1 breast carcinoma (Day 15); 385.4 in the experiment with 4T1 breast carcinoma (Day 20); 793.2 in the experiment with 4T1 breast carcinoma (Day 25). The “survival time of myc-on mice” value in experiment [1] is “prolonged the survival time”. Also, the “anti-tumor effects (liver tumors)” value turned out to be 69.5 in experiment [1] (Du102 + Anti-CD4); 89.7 in experiment [1] (Du102 + Anti-CD4/CD8); 27.5 in experiment [1] (Du102 + Isotype, Table 18). Also, the number of tumors was 4.4 in experiment [1] (Du102 + Anti-PD-1) and 42.3 in experiment [1] (Du102 + Isotype, Table 19). In experiment [1] (gavage, 5 per week for 4 weeks, analyzed 10 weeks later), this substance had a liver tumor numbers of 26.7. The tumor suppressive effect result in experiment [2] was “some tumor suppressive effect”; in experiment [2] (listed as Dul02), “effective tumor suppressive effects”; in experiment [3] it was “some tumor suppressive effect”; in experiment [3] (listed as Dul02) it was “effective tumor suppressive effects”. For the same substance, the IL-1β in the experiment on IL-1β amounted to 952. This substance yielded an MHC-1 in experiment [4] (DMSO 0.6) of 51.7. Also, the MHC-II in experiment [4] (DMSO 0.7) stood at 43.6. The CD4 in experiment [4] (DMSO 1.0) came out at 13.2. In experiment [4] (DMSO 2.0), this substance returned a CD8 of 13.5. Besides, the INFγ with INFγ is recorded as 623.
